Data: patent US8507506B2, “Theophylline derivative inhibits osteoporosis” (Kaohsiung Medical University, priority 2011, dated 2013)

What was measured:
Type in all cases: cell-based
RAW264.7 cells = test: BrdU assay, proliferation induced by RANKL; conditions: RAW264.7, 5 μM, 7.5 μM, 10 μM, FIG. 2
Description: The BrdU assay was followed the instructions of Cell Proliferation ELISA BrdU kit. 10^3 cells were plated per well in 96-well plates. […] After washing in wash buffer for three times, 100 μl/well Substrate reaction was added and incubated for 30 minutes at room temperature.

[1] = system: RAW264.7 cells stimulated by RANKL; test: TRAP stain, differentiation into multinuclear osteoclast-like cells; conditions: 10 ng/ml RANKL for 5 days, FIG. 3
Description: 10^3 cells were plated per well in 96-well plates. […] PBS, 50 μl/well fluid was left. […] 50 μl/well fluid was left, and then Substrate 200 μl/well was added to react for 15 minutes in room temperature. After the cells were stained in red, the cells were washed by ddH2O. At last, the cells were observed and taken pictures by an optical microscopy (40× and 200×), and Autopano Pro V1.4.2, Kolor, Paris, was used to proceed the pictures taken in 40×. Then, the number of the osteoclasts with at least three nuclei was counted and compared with the control group. […] Fixative solution: Citrate solution 25 ml, Acetone 65 ml, 37% Formaldehyde 8 ml. Stored in dark in 4° C. • 2. Citrate solution: 18 mM citric acid, 9 mM sodium citrate, and 12 mM NaCl were solved in 100 ml water, pH 3.6, and then 0.001% Triton X-100 was added at last. • 3. Substrate: 2 mg AS-MX (Naphthol As-Mx-phosphate disodium) and 6 mg Fast Red Violet LB were solved in 1 M Sodium tartrate acetone (0.1 M, pH 5) and 0.1 M, 19 ml sodium acetate.

[2] = system: IL-1β secretion by RAW264.7 cells; test: ELISA, RANKL-induced secretion of IL-1β; conditions: RAW264.7, ELISA, FIG. 6
Description: (§1) Under RANKL stimulation, mononuclear RAW264.7 cells can secrete pro-inflammatory cytokines such as TNF-α, IL-1, IL-6, etc. ELISA is used to measure that KMUP-1 influences RANKL to induce the secretion of pro-inflammatory cytokines. […] 10^5 cells were plated per well in 24-well plates. […] After 24 hours reaction, the reaction fluid was centrifuged (13,000 rpm, 4° C., 20 minutes), and then the supernatant was tasted by ELISA kit (R&D system and eBioscience™) to detect the amount of TNF-α, IL-1β, IL-6, and IL-10. The experimental process is followed with the instructions of the kit.

[3] = system: IL-6 secretion by RAW264.7 cells; test: ELISA, RANKL-induced secretion of IL-6; conditions: RAW264.7, ELISA, FIG. 7(A)
Description: as §1

[4] = system: IκBα in cytoplasm of RAW264.7 cells; test: Western blot, IκBα phosphorylation and hydrolysis induced by RANKL; conditions: KMUP-1 in advance 24 hours, RANKL 30 minutes, FIG. 8(A)
Description: IκBα which originally binds with NF-κB to inhibit its activity in cytoplasm is stimulated by RANKL to be phosphorylized and be hydrolyzed after separating from NF-κB. Then, the free NF-κB transfers into a cell nucleus to play a role as a transcription factor. According to the experimental result, compared with the control group, in the group induced by RANKL for 30 minutes, the IκBα in the cytoplasm is obviously phosphorylized and hydrolyzed. […] According to the result, KMUP-1 can inhibit NF-κB activation induced by RANKL. Nuclear proteins were extracted according to the instructions of NE-PER kit. 2.5×10^6 cells were plated per well in 24-well plates. […] Subsequently, the cells were added by 5.5 μ[…] and shaken for 5 seconds and then put on ice for 1 minute. After that, the cells were shaken again for 5 seconds and centrifuged (10,000 rpm, 4° C., 5 minutes). Cytoplasm and Nuclei could be separated by this process, and the supernatant was cytoplasmic proteins, and the pallet was nuclei. The supernatant was stored in an eppendorf in -80° C. b) Extraction of Nuclear Proteins The nuclear pallet was added by 500 μl PBS and centrifuged (10,000 rpm, 4° C., 5 minutes), and the supernatant was discarded. The pallet could be washed by this process and prevented contamination. […]

[5] = system: MMP-2 protein in RAW264.7 cells; test: Western blot, amount of MMP-2 protein induced by RANKL; conditions: RANKL 24 hours, FIG. 18
Description: (§2) KMUP-1 influences there major up-stream signal transduction pathways which are related to RANK/RANKL. Western blot is used to estimate the amount of matrix metalloproteinase (MMP)-2 and MMP-9 which are related to the dissolution of osteoclast-like cells, and the enzyme activity of MMP-2 and MMP-9 are estimated via Gelatin Zymography. […] The proteins were collected by scraping and were centrifuged (13,000 rpm, 4° C., 30 minutes). The supernatant was stored in an eppendorf in −80° C. • c) Concentrations of the proteins were examined by Bio-Red DC Protein Assay. After knowing the concentrations, the proteins were diluted to specific concentrations by adding ddH2O. One forth volume of the diluted proteins of sample buffer was added into the diluted proteins and was put in boiled water for 5 min and then was chilled on ice for 5 minutes. After short time centrifugation, the diluted proteins could be injected into wells of a gel. The gel was run at 100 V for 10 minutes until the proteins were driven to the intersection between a loading gel and a running gel. Then, the voltage was swopped to 200 V for 40 minutes. • d) A PVDF membrane was immersed in Methanol for 2 minutes. After two washes in ddH2O, the membrane was immersed in transfer buffer for 15 minutes. A SDS-PAGE was put on the membrane, and wet paper was flanked them. […]

[6] = system: MMP-9 protein in RAW264.7 cells; test: Western blot, amount of MMP-9 protein induced by RANKL; conditions: RANKL 24 hours, FIG. 19
Description: as §2

Cn1c(=O)c2c(ncn2CCN2CCN(c3ccccc3Cl)CC2)n(C)c1=O [KMUP-1, 7-[2-[4-(2-Chlorophenyl)piperazin-1-yl]ethyl] theophylline]
cell proliferation induced by RANKL (BrdU assay) (RAW264.7 cells): can inhibit the cell proliferation induced by RANKL
differentiation into multinuclear osteoclast-like cells (TRAP staining) [1]: obviously express inhibition phenomenon related to dose
RANKL-induced secretion of IL-1 [2]: presents a dose dependent inhibition phenomenon
RANKL-induced secretion of IL-6 [3]: presents a dose dependent inhibition phenomenon
phosphorylation and hydrolysis of IκBα in cytoplasm induced by RANKL [4]: can inhibit the effect of RANKL
amount of MMP-2 protein induced by RANKL [5]: can efficiently inhibit the amount of MMP-2 and MMP-9 proteins
amount of MMP-9 protein induced by RANKL [6]: can efficiently inhibit the amount of MMP-2 and MMP-9 proteins
